According to article PMC10518255, “A first-in-class pan-lysyl oxidase inhibitor impairs stromal remodeling and enhances gemcitabine response and survival in pancreatic cancer” (Nature Cancer, 2023):
Values joined by “and” are separate entries in the source; they are usually repeats but may differ in a detail not shown here. Equal values may be shown once.

How the values were obtained:
[1] = tested on: lysyl oxidase family members in KPC CCs; assay: qRT-PCR of lysyl oxidase family members after treatment (Extended Data Figs. 2d, 3h); type: cell-based, mouse; parameters: qRT-PCR LOX (Ct) / qRT-PCR LOX ΔCt / qRT-PCR LOX ΔΔCt KPC CC / qRT-PCR LOXL1 ΔCt / qRT-PCR LOXL1 ΔΔCt KPC CC / qRT-PCR LOXL2 ΔCt / qRT-PCR LOXL2 ΔΔCt KPC CC / qRT-PCR LOXL3 ΔCt / qRT-PCR LOXL3 ΔΔCt KPC CC / qRT-PCR LOXL4 ΔCt / qRT-PCR LOXL4 ΔΔCt KPC CC: dose or concentration left out as unconfirmed;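 as to qRT-PCR LOX ΔCt: 30 µM PXS-5505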;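 as to qRT-PCR LOXL2 ΔCt: 30 µM PXS-5505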;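 as to qRT-PCR LOXL3 ΔCt: 30 µM PXS-5505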;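 as to qRT-PCR LOXL4 ΔCt: 30 µM PXS-5505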
Procedure: A total of 5 × 10^5 KPC CCs or CAFs were seeded and collected after incubation in 21% O2/5% CO2 for 72 h. RNA was isolated using the RNeasy mini kit (QIAGEN) according to the manufacturer’s instructions. Then, 1 μg of RNA was reverse transcribed using the Transcriptor First Strand cDNA Synthesis kit (Roche LifeScience) with anchored-oligo(dT)18 primers or the QuantiTect Reverse Transcription kit (QIAGEN). Real-time PCR was performed using the Roche LightCycler480 (Roche LifeScience) or QuantStudio 7 (Thermo Fisher). The following probe sets from Applied Biosystems, were used: LOX, Mm00495386; LOXL1, Mm01145738; LOXL2, Mm00804740; LOXL3, Mm01184867; LOXL4, Mm00446385; and GAPDH, Mm99999915. Primers and Roche Universal Probe Library probes used for RT–qPCR are described in Supplementary Table 4. Relative mRNA expression levels for each transcript of interest were normalized to GAPDH or ACTB (as indicated) and quantified using the comparative double ΔCt method (unless stated otherwise) for each biological replicate.
Extended Data Fig. 2 Characterization of cells derived from the KPC autochthonous model. a. Immunofluorescence staining of KPC CCs and KPC CAFs for the pancreatic epithelial cell marker CDH1 (green), DAPI (blue) and for the CAF marker α-SMA (yellow), DAPI (blue). Representative images from n = 3 biological independent samples. Scale bar = 30 μm. b. RNAseq reads for CAF and epithelial cell makers in KPC CAFs n = 3 biological independent samples. […] Data is presented as mean values ± SEM. […] Data presented as mean values +/− SD. […] Source data
Data presented as mean values +/− SD. f. […] Data presented as mean values +/− SD. […] Data presented as mean values +/− SD. […] Data presented as mean values +/− SD. Ordinary one-way ANOVA for multiple comparison test performed. Source data

KPC PDAC tumors = assay: Tumor weight at end point, KPC survival study; type: in vivo, mouse; settings: Extended Data 5B; KPC tumours; individual animals
Description: Treatment of KPC mice with gemcitabine led to a slowing of primary tumor progression, increasing survival from a median survival of 85 days in untreated mice to 125 days in gemcitabine-treated mice (P = 0.0005) (Fig. 4b,c, blue versus red). PXS-5505 as a monotherapy led to no changes in median survival compared to vehicle (85 versus 81 days) (Fig. 4c, blue versus green).
Extended Data Fig. 5 PXS-5505 in combination with gemcitabine in vivo. a. […] Signal is defined as the enzyme activity in the aorta, while noise is measured in the presence of a high concentration (300 µM) BAPN to abolish any lysyl oxidase family activity. […] Data presented as mean values +/− SD b. […] Data presented as mean values +/− SD. c. FITC-dextran (molecular weight: 10 kDa) signal quantification from KPC tumor end point from each treatment group (vehicle n = 3 biologically independent animals, PXS-5505 n = 5 biologically independent animals, Gem n = 5 biologically independent animals, PXS-5505 + Gem n = 5 biologically independent animals). 4 ROIs taken per mouse. P-values determined by Welchs t-test. […] Quantification of red birefringent (mature) collagen fibers from human PDXs at end point after 3 cycles of treatment, treated as indicated. […] P values determined by Welchs t-test. g. […] Quantification of green birefringent (nascent) collagen fibers from human PDXs at end point, treated as indicated. […]

[2] = KPC CCs, 50 nM gemcitabine, 48 hours, per replicate
[3] = KPC CCs, 50 nM gemcitabine, 48 hours, vs GAPDH, per replicate
[4] = KPC CC, 48 hour treatment, 30 M PXS-5505, replicates
[5] = KPC CC, 48 hour treatment, PXS-5505, replicates
[6] = KPC CC, 48 hour treatment, PXS-5505, vs GAPDH, replicates

With `Nc1ccn([C@@H]2O[C@H](CO)[C@@H](O)C2(F)F)c(=O)n1` [Gem, gemcitabine] the “LOX ΔΔCt CC” value [1, 2] was 0.5966 and 0.4518 and 0.8445, the “LOXL1 ΔΔCt CC” value [1, 2] was 2.011 and 0.7673 and 0.4707 and the “LOXL2 ΔΔCt CC” value [1, 2] was 1.535 and 1.563 and 1.2. The “LOXL3 ΔΔCt CC” value [1, 2] was 1.643 and 1.594 and 1.375, the “LOXL4 ΔΔCt CC” value [1, 2] was 0.7511 and 0.9095 and 0.7486 and the “LOX ΔCt” value [1, 3] was 14.7188 and 15.1199 and 14.2176. The “LOXL1 ΔCt” value [1, 3] was 12.5081 and 13.8984 and 14.6034, the “LOXL2 ΔCt” value [1, 3] was 4.459 and 4.433 and 4.815 and the “LOXL3 ΔCt” value [1, 3] was 5.8941 and 5.937 and 6.151. For the same compound, the “LOXL4 ΔCt” value [1, 3] was 8.9744 and 8.6983 and 8.979, the “expression of lysyl oxidase family members” value ([1]; KPC cancer cells, 50 nM gemcitabine for 48 hours) was “not observed” and the “Tumour weight at endpoint” value (KPC PDAC tumors) was 0.28 grams and 0.51 grams and 0.6 grams and 0.69 grams and 0.41 grams and 0.462 grams and 0.3 grams and 0.26 grams and 0.37 grams and 1.42 grams and 0.75 grams and 0.63 grams and 1.2 grams and 0.7 grams and 0.4 grams.

For `Cl.Cl.NC/C=C(\F)CS(=O)(=O)c1cccc2cccnc12.O` [PXS-5505, (Z)-3-fluoro-4-(quinolin-8-ylsulfonyl)but-2-en-1-amine dihydrochloride monohydrate], the “qRT-PCR LOXL1 (Ct)” value [1, 4] was 32.0868 and 30.4856 and 33.7318, the “qRT-PCR LOXL2 (Ct)” value [1, 4] was 25.1478 and 23.1006 and 27.5044 and the “qRT-PCR LOXL3 (Ct)” value [1, 4] was 25.6118 and 24.0525 and 29.0502. For the same compound, the “qRT-PCR LOXL4 (Ct)” value [1, 4] was 26.1005 and 25.1765 and 30.4751, the “qRT-PCR LOX (Ct)” value [1, 5] was 32.5405 and 35.0722 and 35.237 and the “qRT-PCR LOX ΔΔCt KPC CC” value [1, 5] was 3.619 and 0.48 and 10.8682. For the same compound, the “qRT-PCR LOXL1 ΔΔCt KPC CC” value [1, 5] was 0.8362 and 0.4014 and 1.074, the “qRT-PCR LOXL2 ΔΔCt KPC CC” value [1, 5] was 0.7412 and 0.4847 and 0.5812 and the “qRT-PCR LOXL3 ΔΔCt KPC CC” value [1, 5] was 2.035 and 0.9488 and 0.7538. The “qRT-PCR LOX ΔCt” value [1, 6] was 15.5819 and 18.4964 and 13.9954, the “qRT-PCR LOXL1 ΔCt” value [1, 6] was 12.8511 and 13.9099 and 12.4902 and the “qRT-PCR LOXL2 ΔCt” value [1, 6] was 5.9121 and 6.525 and 6.263. For the same compound, the “qRT-PCR LOXL3 ΔCt” value [1, 6] was 6.376 and 7.477 and 7.8086, the “qRT-PCR LOXL4 ΔΔCt KPC CC” value ([1]; KPC CC, 48 hour treatment, replicates) was 3.255 and 0.9772 and 0.6302 and the “qRT-PCR LOXL4 ΔCt” value ([1]; KPC CC, 48 hour treatment, vs GAPDH, replicates) was 6.8648 and 8.601 and 9.233. The “transcription of lysyl oxidase family members” value ([1]; KPC CCs, PXS-5505 up to 300 µM) was “does not significantly alter transcription” and the “Tumour weight at endpoint” value (KPC PDAC tumors) was 0.55 grams and 0.54 grams and 0.19 grams and 0.83 grams and 0.33 grams and 1.18 grams and 0.43 grams and 0.96 grams and 1.94 grams and 0.78 grams and 1.16 grams and 1.34 grams and 0.68 grams and 0.3 grams and 1.3 grams and 0.5 grams and 0.8 grams.
